Test results as given in US10597542B2, “Methods of applying active components” (HONEYWELL INTERNATIONAL INC., priority 2011, dated 2020).

Assay: Solubility of material samples covered with tr-1233zd or cis-1233zd in vials (Examples 8-13)
Conditions: for Amount of heparin dissolved: remained clear overnight
Text: (§1) Test samples of commercial acrylic plastic sheet cut into ¼″×2″ piece were placed into 20 cc vials with septum screw cap. Solvents (tr-1233zd & cis-1233zd) were slowly added by a syringe to cover the entire plastic sample inside the vial. The purpose was to observe if any degradation happens to the plastic.
as §1, with “high impact styrene” for “acrylic”
Test samples of commercial acrylonitrile-butadiene-styrene (ABS) sheet cut into ¼″×2″ piece were placed into 20 cc vials with septum screw cap. Solvents (tr-1233zd & cis-1233zd) were slowly added by a syringe to cover the entire plastic sample inside the vial.
The experiment in Example 8 is repeated with commercial polycarbonate material.
The experiment of Example 8 was repeated with commercial Dow Polaroid™ Au-608-B acrylic material. This material is used in various coatings.
The experiment of Example 8 was repeated with blood anti-coagulant material Heparin, which is used as a coating in medical devices.

Amount of heparin dissolved (cis-1233zd with 2 wt % methanol): 1.19 wt %
Amount of heparin dissolved (tr-1233zd with 2 wt % methanol): 0.794 wt %
Substance: Heparin
Solubility / effect of solvent on the material: None of the solvents could dissolve the material
